Here are results for five compounds from patent US20070184165A1, “Compositions and methods for improving the efficiency of preservatives in foods” (RAD NATURAL TECHNOLOGIES LTD., priority 2003, published 2007).

For orientation: % Inhibition means the share of the control response that was lost under treatment. Lower therefore signals a response near the control.

One experiment has as its system mold. In words: Deterioration of whole wheat flour due to mold, measured by carbon dioxide formation. Conditions: for carbon dioxide formation: 22% moisture, 30° C. The method, then: Whole wheat flour which contained 22% moisture was maintained at a temperature of 30° C. The deterioration due to mold formation was measured by determining the amount (%) of carbon dioxide which formed over a ten day period or until the maximum of 15-16% was attained, whichever was the sooner.

Another experiment deals with salmonella. Briefly: Inhibition of salmonella growth. It is filed as cell-based. The note with it: control growth at 8 hours = 100%. The method, then: The inhibition of salmonella growth was determined for the title combination and this was compared with control (absence of inhibitors) and using separately, sodium rosmarinate and sodium acetate. The results are as follows, comparing the inhibition of growth effect of inhibitors, control growth being taken arbitrarily at 8 hours, as 100%: […]

Experiment [1] in a line: Inhibition of oxidative deterioration in soybean oil at 180° C. (hexanal and trans-decadienal formed). Conditions: four hours, 0.02%. The method, then:
(c) Inhibition of oxidative deterioration in soybean oil at 180° C. (four hours) was determined by dissolving Origanox™ OS-A, rosemary oil or TBHQ in the soybean oil and determining the amount of hexanal and trans-decadienal formed in the product, compared with a control in which no antioxidant was used.

The nature of experiment [2]: Myoglobin stabilization (colour intensity) in treated fresh beef. Conditions: after seven days, 250 ppm. The method, then:
(c) Fresh beef was treated, by injection, with “Origanox™ WS-A” (b)(i), above. The thus-treated fresh beef product contained approximately 32.5 ppm sodium rosmarinate and 250 ppm ascorbic acid. The product was tested for myoglobin stabilization by measuring absorption, i.e. intensity of color, at 542 nm, after seven days.

Experiment [3] is described as follows: Freshness of cured beef by formation of malondialdehyde. The method, then: (d) Cured beef was treated with “Origanox™ WS-A” (b(ii), above). The thus-treated cured beef product contained approximately 32.5 ppm sodium rosmarinate and 500 ppm ascorbic acid. The higher proportion of ascorbic acid in this case was to inhibit the formation of toxic nitrosamines. The product was tested for freshness as evidenced by the formation of malondialdehyde after 1, 4 and 7 days, and compared with control (no treatment) and with other treatments.

For the compound `CCC(=O)[O-].CCC(=O)[O-].[Ca+2]` [Ca propionate, calcium propionate], the “time until maximum % carbon dioxide (maximum deterioration) was reached” value in the experiment on mold (0.2%) was 7 to 8 days. Further, the carbon dioxide formation in the experiment on mold (Day 0, 0.2%) is listed as 0.54%; with mold (Day 1, 0.2%) it was 0.81%; in the experiment on mold (Day 2, 0.2%) it was 1.1%; in the experiment on mold (Day 3, 0.2%) it was 1.3%; in the experiment with mold (Day 4, 0.2%), 2.0%; in the experiment with mold (Day 5, 0.2%) it was 3.2%. Besides, the carbon dioxide formation is on record as 6.5% in the experiment with mold (Day 6, 0.2%); 14.6% in the experiment on mold (Day 7, 0.2%); 15% in the experiment with mold (Day 8, 0.2%).

`CC(=O)[O-].[Na+]` [Sodium acetate]: the “% Growth” value in the experiment with salmonella (4 hours, 1.0%) came to 33%; with salmonella (4 hours, 2.0%) it was 17%; in the experiment with salmonella (8 hours, 1.0%), 75%; with salmonella (8 hours, 2.0%) it was 62%.

`CC(C)(C)c1cc(O)ccc1O` [TBHQ]: the “% Inhibition” value in experiment [1] is listed as 32%.

Regarding `O=C1O[C@H]([C@@H](O)CO)C(O)=C1O` [ascorbic acid], in experiment [2], the “absorption at 542 nm” value was 0.513. The Formation of malondialdehyde in experiment [3] (day 1, 500 ppm) is recorded as 0.788 mg/kg; in experiment [3] (day 4, 500 ppm), 1.224 mg/kg; in experiment [3] (day 7, 500 ppm) it was 1.944 mg/kg.

Turning to `O=C(/C=C/c1ccc(O)c(O)c1)O[C@H](Cc1ccc(O)c(O)c1)C(=O)O` [sodium rosmarinate], the Formation of malondialdehyde in experiment [3] (day 1, 32.5 ppm) is on record as 0.798 mg/kg; in experiment [3] (day 4, 32.5 ppm) it was 1.097 mg/kg; in experiment [3] (day 7, 32.5 ppm), 1.327 mg/kg.
